Measurements taken from article PMC11965977, “Selective Antiproliferative and Apoptotic Effects of 2,6‐Diketopiperazines on MDA‐MB‐231 Triple‐Negative Breast Cancer” (Chemical Biology & Drug Design, 2025).

Legend:
Type in all cases: cell-based
[1] = test system: Vero kidney cell line; test: Cytotoxicity by MTT assay on healthy Vero kidney cell line; conditions: concentrations 0.00066 to 12 mM
Description: (§1) Compounds 1, (S)‐2a, −4a, and ‐5a presented the lowest IC50 values of all the compounds tested (see Table 1), so it was interesting to investigate their toxicity in healthy cells.
(§2) Cell lines of the MDA‐MB‐231 of TNBC and VERO from healthy kidney cells used in this work were donated by ‘National Institute of Cancerology of the Ministry of Health’ from Mexico. MDA‐MB‐231 and Vero cells preserved at −70°C in DMEM F12 medium Gibco, 10% FBS, 5% DMSO, and 5% glycerol were thawed at 37°C and resuspended in DMEM F12 medium, supplemented with 10% FBS and antibiotic (penicillin 100 UI/mL, streptomycin 100 μg/mL and amphotericin 250 μg/mL) and then centrifuged at 2000 rpm for 10 min. The supernatant was removed, and the cells were resuspended in DMEM F12 medium, supplemented with 10% FBS and antibiotic, seeded in 25 cm^2 culture flasks Corning, and incubated at 37°C with 5% CO2 until at least 90% confluence was reached.
(§3) The MTT assay was used to measure metabolically active cells. Cells were seeded into 96‐well microtiter plates Corning at […] in 100 μL of DMEM‐F12 medium supplemented with 10% FBS and antibiotic Gibco (penicillin 100 IU/mL, streptomycin 100 μg/mL and amphotericin 250 μg/mL). After reaching confluence, cells were treated for 24 h with compounds 1, (S)‐2–14 and (R)‐2–4, 6–8, 11–14 stereoisomers, at concentrations of […], 0.00229, 0.0073, 0.0243, 0.081, 0.27, 0.9, 3.0, 10.0, and 12.0 mM at 1% DMSO, with compounds 1, (S)‐2a, ‐4a, and ‐5a at concentrations of 0.00066, 0.00229, 0.0073, 0.0243, 0.081, 0.27, 0.9, 3.0,10.0, and 12 mM at 1% DMSO, using DMSO 1% in DMEM F12 as the negative control and TSA as the positive control at 50 μM (Sanaei and Kavoosi [2020]). Post‐treatment, cell viability was measured by the conventional MTT dye‐reduction assay. Thus, 20 μL of MTT reagent (5 mg/mL) in PBS 1X was added to each well and incubated at 37 °C for 4 h. Viable cells with active mitochondria reduced the MTT to an insoluble purple formazan precipitate that was solubilized with the subsequent addition of 50 μL of DMSO. The formazan dye was measured spectrophotometrically using a microplate reader Molecular Devices. The cytotoxic impact of each treatment was quantified by determining cell viability as a percentage relative to untreated control cells, referred to as the percentage of control. This is calculated using the formula: [(A595 or A570 nm reading of treated cells)/(A595 or A570 nm reading of untreated cells)] × 100 (Mosmann [1983]; Plumb [1999]). All assays were performed in triplicate. Cell proliferation percentages relative to growth control cells were calculated, and inhibitory concentration 50 (IC50) values were calculated using a regression analysis of the concentration/antiproliferative activity ratio and analyzed using the statistical package prism (Graph‐Pad Software, San Diego, CA, USA).

[2] = as above; conditions: African green monkey, Vero kidney cells (healthy), even at 12 mM concentrations (data not shown)
Description: as §1, §2, §3

[3] = test system: MDA‐MB‐231 triple‐negative breast cancer cells; test: Antiproliferative activity by MTT assay on MDA‐MB‐231 cell line; conditions: Homo sapiens, 24 h treatment, 1% DMSO, mean ± standard deviation of three separate determinations, read-out: IC50 of inhibitory activity on MDA‐MB‐231 triple‐negative breast cancer cells
Description: The antiproliferative activity of 2,6‐diketopiperazines 1, stereoisomers (S)‐2a‐14a, and (R)‐2b‐4b, 6b‐8b, and 11b‐14b was evaluated by the MTT assay on the MDA‐MB‐231 cell line using TSA as positive control at 50 μM. […] Compounds 1 and both (S) and (R) enantiomers reveal differences in their inhibitory effects.
as §2, §3

[4] = test system: MDA‐MB‐231 cell line; test: Apoptotic induction by Annexin V‐FITC/7AAD flow cytometry on MDA‐MB‐231 cell line; conditions: MDA‐MB‐231, compound at its IC50 concentration
From the text: This work presents the apoptotic induction of the 2,6‐DKPs 1, (S)‐stereoisomers 2a to 6a derived from Gly, Ala, Val, Leu, Ile, and Pro α‐amino acids, respectively; as well as 9a to 14a derived from Tyr, Tyr (where the OH group is protected with an acetamide group), Ser, Thr, Met, and Trp α‐amino acids, respectively on the MDA‐MB‐231 cell line by flow cytometry. In this assay, 1% DMSO was used as a negative control and TSA as a positive control (Figure 2). The inhibition of proliferation may be due, among other mechanisms, to arrest in the cell cycle, and/or to an induction of cell death. In the second case, it is important to differentiate whether this death is necrotic inflammatory or apoptotic non‐inflammatory, which is desirable for anti‐cancer agents. […]
FIGURE 5 Flow Cytometry Analysis Strategy. […] A total of 5000/seg events were analyzed for each group.
Assays were performed using the commercial kit Annexin V labeled with the fluorochrome fluorescein isothiocyanate (FITC) BD Biosciences. […] After incubation time, the quantification of MDA‐MB‐231 cells was performed by flow cytometry with a FITC and 7AAD signal detector (FL1) and (FL3) on a FACS aria (Becton Dickinson). 5000/seg events were analyzed. Apoptotic induction percentages were calculated (Graph‐Pad Software, San Diego, CA, USA).

SMILES | IC50 [3] [µM] | further results
CCC(C)[C@@H]1NCC(=O)NC1=O (stereo partly drawn) [(S)‐5a] | 6.8 ± 0.028 | Toxicity on Vero kidney cell line (in words) [1]: did not exhibit toxicity; viability at 24 h, 12 mM [2]: 100%
CC(O)[C@@H]1NCC(=O)NC1=O (stereo partly drawn) [(S)‐12a] | 2100 ± 249 | Decrease in apoptotic induction at 48 h compared to the 24 h test [4]: 3%
C[C@H]1NCC(=O)NC1=O [(R)‐2b] | 21 | 
O=C1CN[C@@H](Cc2ccc(O)cc2)C(=O)N1 [(S)‐9a] | 1669 ± 11 | 
O=C1CN[C@H](Cc2ccccc2)C(=O)N1 [(R)‐7b] | 2150 ± 202 | 
CC(C)[C@H]1NCC(=O)NC1=O [(R)‐3b] | 822 ± 1350 | 
O=C1CN[C@@H](Cc2c[nH]c3ccccc23)C(=O)N1 [(S)‐14a] | 12 | 
O=C1CN[C@H](Cc2ccc(OCc3ccccc3)cc2)C(=O)N1 [(R)‐8b] | 3640 ± 1220 | 
O=C1CN[C@@H](Cc2ccc(OCc3ccccc3)cc2)C(=O)N1 [(S)‐8a] | 4940 ± 733 | 
O=C1CN[C@@H](CO)C(=O)N1 [(S)‐11a] | 49 ± 26 | 
CC(C)C[C@H]1NCC(=O)NC1=O [(R)‐4b] | 265 | 
CC(C)C[C@@H]1NCC(=O)NC1=O [(S)‐4a] | 5.5 ± 0.235 | Toxicity on Vero kidney cell line (in words) [1]: did not exhibit toxicity; viability at 24 h, 12 mM [2]: 100%
O=C1CN2CCC[C@@H]2C(=O)N1 [(R)‐6b] | 584 ± 1010 | 
CC(C)[C@@H]1NCC(=O)NC1=O [(S)‐3a] | 17 | 
CSCC[C@@H]1NCC(=O)NC1=O [(S)‐13a] | 978 ± 96 | 
O=C1CN[C@@H](Cc2ccccc2)C(=O)N1 [(S)‐7a] | 155 ± 322 | 
NC(=O)COc1ccc(C[C@@H]2NCC(=O)NC2=O)cc1 [(S)‐10a] | 469 ± 860 | 
CC(O)[C@H]1NCC(=O)NC1=O (stereo partly drawn) [(R)‐12b] | 1720 ± 85 | 
C[C@@H]1NCC(=O)NC1=O [(S)‐2a] | 4.6 ± 0.169 | Toxicity on Vero kidney cell line (in words) [1]: did not exhibit toxicity; viability at 24 h, 12 mM [2]: 100%
O=C1CN2CCC[C@H]2C(=O)N1 [(S)‐6a] | 1020 ± 167 | 
O=C1CN[C@H](Cc2c[nH]c3ccccc23)C(=O)N1 [(R)‐14b] | 357 ± 190 | 
O=C1CNCC(=O)N1 [Compound 1] | 4.6 ± 0.019 | Toxicity on Vero kidney cell line (in words) [1]: did not exhibit toxicity; viability at 24 h, 12 mM [2]: 100%
CSCC[C@H]1NCC(=O)NC1=O [(R)‐13b] | 1310 ± 284 | 
O=C1CN[C@H](CO)C(=O)N1 [(R)‐11b] | 801 ± 208 | 
